{
  "source": "paper PMC9191221",
  "about": "(Iranian Journal of Pharmaceutical Research : IJPR, 2022)",
  "biological_target": "EGFR^T790M (Homo sapiens, UniProt P00533, T790M)",
  "sequence (P00533 25-1210 T790M)": "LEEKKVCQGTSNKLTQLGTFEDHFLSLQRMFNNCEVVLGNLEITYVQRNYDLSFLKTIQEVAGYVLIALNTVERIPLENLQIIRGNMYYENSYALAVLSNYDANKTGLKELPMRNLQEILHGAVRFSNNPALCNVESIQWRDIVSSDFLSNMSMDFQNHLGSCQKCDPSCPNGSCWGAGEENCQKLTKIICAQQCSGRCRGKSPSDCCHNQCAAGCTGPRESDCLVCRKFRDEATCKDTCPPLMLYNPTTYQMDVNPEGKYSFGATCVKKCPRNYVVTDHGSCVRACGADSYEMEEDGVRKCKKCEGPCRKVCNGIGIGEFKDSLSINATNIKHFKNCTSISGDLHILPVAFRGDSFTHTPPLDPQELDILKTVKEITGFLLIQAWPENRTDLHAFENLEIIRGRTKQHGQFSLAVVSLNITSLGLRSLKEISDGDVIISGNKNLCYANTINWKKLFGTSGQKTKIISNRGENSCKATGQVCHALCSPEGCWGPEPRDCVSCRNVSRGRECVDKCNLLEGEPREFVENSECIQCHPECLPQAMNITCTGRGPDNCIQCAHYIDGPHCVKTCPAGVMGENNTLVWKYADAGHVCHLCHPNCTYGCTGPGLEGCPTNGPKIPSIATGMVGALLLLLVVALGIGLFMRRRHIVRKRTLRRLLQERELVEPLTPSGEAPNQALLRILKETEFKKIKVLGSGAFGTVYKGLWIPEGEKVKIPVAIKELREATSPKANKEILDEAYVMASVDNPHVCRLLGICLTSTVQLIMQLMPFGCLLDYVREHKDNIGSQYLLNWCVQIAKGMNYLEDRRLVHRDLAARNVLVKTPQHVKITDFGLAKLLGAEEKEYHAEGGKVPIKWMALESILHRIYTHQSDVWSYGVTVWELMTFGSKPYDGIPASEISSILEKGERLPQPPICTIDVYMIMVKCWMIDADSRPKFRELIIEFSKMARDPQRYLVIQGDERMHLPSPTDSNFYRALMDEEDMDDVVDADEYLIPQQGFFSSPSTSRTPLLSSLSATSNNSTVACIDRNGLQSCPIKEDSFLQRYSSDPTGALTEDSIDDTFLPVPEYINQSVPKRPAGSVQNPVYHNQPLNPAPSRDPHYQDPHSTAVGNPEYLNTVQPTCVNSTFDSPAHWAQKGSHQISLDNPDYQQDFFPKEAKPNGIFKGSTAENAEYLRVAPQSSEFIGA",
  "experiment": "EGFR-TK assay kit / ADP-Glo kinase assay",
  "format": "biochemical",
  "conditions": "tested in triplicate",
  "note": "Values joined by “and” are separate entries in the source; they are usually repeats but may differ in a detail not shown here. Equal values may be shown once.",
  "data": [
    {"smiles": "O=c1nc(NCc2ccccc2Cl)[nH]c2ccc(Oc3ccccc3)cc12", "note": "[Compound 8b, 2-((2-Chlorobenzyl)amino)-6-phenoxyquinazolin-4(1H)-one]", "values": [
      {"measurement": "IC50", "result": "0.37 nM and 1.37 nM"}
    ]}
  ]
}
